Data as given in ChEMBL document CHEMBL5030563, “Structure-Based Design of Dual-Acting Compounds Targeting Adenosine A2A Receptor and Histone Deacetylase as Novel Tumor Immunotherapeutic Agents” (J Med Chem, 2021).

Assays:
[1] = tested on: MC-38; assay: Antitumour activity against mouse MC38 cells in C57BL/6 mouse assessed as tumour growth inhibition at 30 mg/kg, ip, bid measured after 9 days relative to control; type: functional; settings: MC-38, ip, 216 h, time 9 day, read-out: TGI
[2] = tested on: MC38; assay: Inhibition of HDAC in mouse MC38 cells assessed as increase in acetyl-histone H3 measured after 24 hrs by Western blot analysis; type: cell-based
[3] = molecular target: T1, Histone deacetylase 7 (Homo sapiens, UniProt Q8WUI4); assay: Inhibition of HDAC7 (unknown origin) assessed as release of 7-amino-4-methylcoumarin incubated in room temperature for 15 min measured by Spectra max microtitre plate reader
T1 sequence (Q8WUI4 whole entry): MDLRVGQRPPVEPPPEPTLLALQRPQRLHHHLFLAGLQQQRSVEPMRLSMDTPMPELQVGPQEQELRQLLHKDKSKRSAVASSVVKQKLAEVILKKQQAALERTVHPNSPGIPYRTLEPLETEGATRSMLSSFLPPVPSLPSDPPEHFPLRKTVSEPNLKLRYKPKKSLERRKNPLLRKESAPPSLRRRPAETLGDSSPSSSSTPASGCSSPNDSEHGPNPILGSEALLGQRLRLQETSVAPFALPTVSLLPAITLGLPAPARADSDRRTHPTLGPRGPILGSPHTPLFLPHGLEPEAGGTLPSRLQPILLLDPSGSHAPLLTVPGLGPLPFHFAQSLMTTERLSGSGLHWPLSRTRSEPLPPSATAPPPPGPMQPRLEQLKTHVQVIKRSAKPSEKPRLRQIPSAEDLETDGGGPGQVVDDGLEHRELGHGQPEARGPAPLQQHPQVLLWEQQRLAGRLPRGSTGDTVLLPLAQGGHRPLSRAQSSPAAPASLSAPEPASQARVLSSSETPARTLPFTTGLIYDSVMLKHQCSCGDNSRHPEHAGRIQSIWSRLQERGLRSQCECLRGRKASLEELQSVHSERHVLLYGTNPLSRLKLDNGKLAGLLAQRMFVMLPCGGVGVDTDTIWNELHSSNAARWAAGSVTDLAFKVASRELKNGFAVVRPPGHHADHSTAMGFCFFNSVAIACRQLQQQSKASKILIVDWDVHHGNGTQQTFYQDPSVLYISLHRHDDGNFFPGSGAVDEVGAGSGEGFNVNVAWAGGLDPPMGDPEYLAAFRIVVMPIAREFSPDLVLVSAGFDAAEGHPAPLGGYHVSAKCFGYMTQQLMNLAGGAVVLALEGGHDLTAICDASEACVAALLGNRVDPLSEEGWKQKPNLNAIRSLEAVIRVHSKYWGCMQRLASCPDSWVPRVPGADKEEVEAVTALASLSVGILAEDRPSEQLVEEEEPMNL

[4] = molecular target: Histone deacetylase 5 (Homo sapiens, UniProt Q9UQL6); assay: Inhibition of HDAC5 (unknown origin) assessed as release of 7-amino-4-methylcoumarin incubated in room temperature for 15 min measured by Spectra max microtitre plate reader
[5] = molecular target: T2, Adenosine receptor A1 (Homo sapiens, UniProt P30542); assay: Displacement of [3H]DPCPX from human adenosine A1 receptor membrane (unknown origin) measured after 60 mins by scintillation counting analysis; type: cell membranes
T2 sequence (P30542 whole entry): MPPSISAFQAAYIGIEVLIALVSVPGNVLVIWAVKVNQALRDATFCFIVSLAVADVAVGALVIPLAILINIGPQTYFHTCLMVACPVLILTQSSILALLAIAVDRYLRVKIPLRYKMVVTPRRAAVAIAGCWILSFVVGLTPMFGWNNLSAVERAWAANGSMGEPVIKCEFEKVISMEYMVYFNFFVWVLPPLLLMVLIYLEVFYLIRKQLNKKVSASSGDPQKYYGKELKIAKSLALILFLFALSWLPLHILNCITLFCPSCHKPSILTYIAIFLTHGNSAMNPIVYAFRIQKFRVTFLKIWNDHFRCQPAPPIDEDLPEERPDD

[6] = Half life in ICR mouse at 5 mg/kg, iv up to 24 hrs by LC-MS/MS analysis; type: ADME, organism-based; settings: in vivo
[7] = AUC (0 to […]) in ICR mouse at 20 mg/kg, ip up to 24 hrs by LC-MS/MS analysis; type: ADME, organism-based; parameters: route intraperitoneal, dose 20 mg/kg, time <=24; settings: in vivo
[8] = Elimination rate constant in ICR mouse at 20 mg/kg, ip up to 24 hrs by LC-MS/MS analysis; type: ADME, organism-based; settings: in vivo
[9] = Half life in ICR mouse at 20 mg/kg, po by LC-MS/MS analysis; type: ADME, organism-based; settings: in vivo
[10] = Elimination rate constant in ICR mouse at 20 mg/kg, po up to 24 hrs by LC-MS/MS analysis; type: ADME, organism-based; settings: in vivo
[11] = tested on: MC-38; assay: Antiproliferative activity against mouse MC38 cells measured after 72 hrs by CCK8 assay; type: functional; settings: Mus musculus, MC-38

Histone deacetylase 5, sequence (Q9UQL6 whole entry): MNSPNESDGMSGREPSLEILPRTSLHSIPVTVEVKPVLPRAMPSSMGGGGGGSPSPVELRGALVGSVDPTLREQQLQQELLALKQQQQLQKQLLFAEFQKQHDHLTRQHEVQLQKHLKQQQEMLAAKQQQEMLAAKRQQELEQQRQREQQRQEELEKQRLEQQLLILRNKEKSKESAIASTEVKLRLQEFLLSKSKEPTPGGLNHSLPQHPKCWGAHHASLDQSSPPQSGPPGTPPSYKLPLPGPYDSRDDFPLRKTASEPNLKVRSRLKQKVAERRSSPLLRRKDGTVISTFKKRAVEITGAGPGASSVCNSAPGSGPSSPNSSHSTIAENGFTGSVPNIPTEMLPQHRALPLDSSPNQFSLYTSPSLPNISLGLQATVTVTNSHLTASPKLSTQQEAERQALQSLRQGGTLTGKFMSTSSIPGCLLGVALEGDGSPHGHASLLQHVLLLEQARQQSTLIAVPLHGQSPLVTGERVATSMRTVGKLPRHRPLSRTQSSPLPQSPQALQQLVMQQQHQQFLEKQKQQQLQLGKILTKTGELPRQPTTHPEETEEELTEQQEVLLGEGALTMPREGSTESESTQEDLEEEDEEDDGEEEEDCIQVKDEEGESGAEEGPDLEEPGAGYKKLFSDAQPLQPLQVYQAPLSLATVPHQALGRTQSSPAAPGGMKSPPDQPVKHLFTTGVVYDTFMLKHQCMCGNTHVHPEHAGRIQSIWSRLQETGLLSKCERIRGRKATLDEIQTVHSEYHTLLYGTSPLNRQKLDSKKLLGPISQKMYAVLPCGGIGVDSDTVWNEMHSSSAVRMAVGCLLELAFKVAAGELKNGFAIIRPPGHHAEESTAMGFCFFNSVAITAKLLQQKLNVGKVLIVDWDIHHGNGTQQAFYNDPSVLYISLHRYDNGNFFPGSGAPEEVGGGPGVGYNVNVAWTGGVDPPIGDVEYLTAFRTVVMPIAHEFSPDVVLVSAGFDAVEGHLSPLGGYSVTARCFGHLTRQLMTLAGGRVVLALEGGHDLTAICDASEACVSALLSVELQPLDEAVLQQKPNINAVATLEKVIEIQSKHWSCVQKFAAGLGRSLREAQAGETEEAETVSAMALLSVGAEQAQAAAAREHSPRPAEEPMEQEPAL

IC50 [3]: > 10 µM
IC50 [4]: > 10 µM
Ki [5]: 71.2 nM
half-life [6]: 17.1 min
AUC(0-t) [7]: 6540 ng·h/mL
k el at 24 h [8]: 0.000138 s⁻¹
half-life [9]: 118 min
k el at 24 h [10]: 9.86e-05 s⁻¹
Structure (SMILES): Nc1ccccc1NC(=O)c1ccc(CCn2ncc3c2nc(N)n2nc(-c4ccco4)nc32)cc1
inhibition in vivo at 30 mg/kg [1]: 57.8%
Activity [2]: Dose-Dependent Effect
GI50 [11]: 6.2 µM
